Values of other authors as cited in US20090306049A1, “Treatment of Barrett's Esophagus” (HUBRECHT LABORATORIUM, priority 2005, published 2009).

Tested on: Barrett's carcinoma

For `O=P1(NCCCl)OCCCN1CCCl` (stereo not shown) [ifosfamide], the “overall efficacy of treatment” value (25 patients treated) is listed as “essentially ineffective”, the “patients cured of metastatic adenocarcinoma in Barrett's oesophagus” value (25 patients treated) is listed as “One” and the “patients with a partial response” value (25 patients treated) is listed as “one”. For the same molecule, the “toxicity associated with treatment” value (generally considered) was “severe toxicity”.
